{"source": "patent US20240299328A1", "about": "“COMPOSITIONS COMPRISING 15-HEPE AND METHODS OF TREATING AND/OR PREVENTING HEMATOLOGIC DISORDERS AND RELATED DISEASES” (Afimmune Limited, priority 2023, published 2024)", "key": {"UUO mice": {"tested_on": "UUO mice", "assay": "UUO study: Sirius red staining, kidney fibrosis area", "type": "in vivo", "experimental": "Histopathological analysis: To visualize collagen deposition, kidney sections were stained using picro-Sirius red solution. For quantification of interstitial fibrosis area, bright field images in the corticomedullary region were captured using a digital camera at 200-fold magnification, and the positive areas in 5 fields/section were measured."}, "NAFLD patients": {"tested_on": "NAFLD patients", "assay": "Phase IIa study in NAFLD patients: metabolic, glycemic, lipid and liver parameters", "type": "in vivo, human", "experimental": "The study was planned to include 96 evaluable patients with 32 patients randomized per treatment group.\nHOMA-IR/Adipo-IR: HOMA-IR/Adipo-IR levels are a method of measuring insulin resistance. HOMA-IR is calculated by multiplying fasting plasma insulin (FPI) by fasting plasma glucose (FPG), then dividing by the constant 405. Adipo-IR is calculated by multiplying fasting non-esterified fatty acids (NEFA)×fasting insulin. Blood samples were taken to assess HOMA-IR and Adipo-IR at Visit 2/Baseline, Visit 3/Week 2, Visit 4/Week 4, Visit 6/Week 8, Visit 8/Week 12, Visit 10/Week 16 and Follow up Visit 11/Week 20. All subjects were required to have been fasted for a minimum of 8 hours prior to blood sampling. If subjects had not fasted for a minimum of 8 hours, the duration of fasting time was recorded, and subjects encouraged to fast appropriately for the next clinical visit.\nLiver stiffness and CAP: Liver stiffness and CAP were assessed using transient elastography (e.g., FibroScan® 502 Touch model or equivalent). Patients were fasted and scanned at the same time of the day, if possible, for baseline (Week 0) and Visit 10 (Week 16). For this assessment the following conditions were met: patients were lying in dorsal decubitus position with the right arm in maximal abduction behind the head, in a similar position to that used for liver biopsy (LB); the tip of the transducer was placed on the skin between the ribs over the right lobe of the liver (the physician took the measurements with the probe placed in the intercostal space); during the FibroScan® examination the choice of M+ or XL+ probe was determined by the Automatic Probe Selection tool (APS) (If, the APS tool advises to use the “XL+ probe” or “switch” continuously between “M+ and XL+ probe”, only the XL+ probe was used); and the operator, assisted by an ultrasonic time motion image, located a portion of the liver which is free of large vascular structures (the depth of measurement was between 35-75 mm for the XL+ probe and 25-65 mm for the M+ probe and the explored volume will be 3 cm^3). For each patient, the operator performed an examination including at least 10 valid measurements or a maximum of 20 attempts, with the XL+ or M+ probe, at the same spot. The entire examination lasted no more than 10-15 minutes. The final stiffness and CAP values was recorded as median values of valid measurements.\nClinical Laboratory Safety Tests: Safety tests were performed for hematology, serum biochemistry, coagulation, lipid profile, and urinalysis: Blood and urine samples were taken as per the Study Flow Chart in Table 19 for routine hematology, serum biochemistry, coagulation and urinalysis tests, along with a Lipid Profile. All samples were analyzed in the central laboratory. All subjects were fasted for a minimum of 8 hours prior to blood sampling. If subjects had not fasted for a minimum of 8 hours, the duration of fasting time was recorded, and subjects encouraged to fast appropriately for the next clinical visit. • Hematology: Full blood count to include red cell count, hemoglobin, hematocrit, white cell count, differential white cell count, platelet count and reticulocyte count. • Serum biochemistry: Urea (blood urea nitrogen; BUN), creatinine, uric acid, total bilirubin, Indirect and Direct Bilirubin, sodium, bicarbonate potassium, phosphorus, calcium chloride, alkaline phosphatase (ALP), aspartate aminotransferase (AST), alanine aminotransferase (ALT), ALT/AST ratio, lactate dehydrogenase (LDH), creatine phosphokinase (CPK), albumin, total protein, cholesterol, triglycerides, glucose, C-reactive protein (CRP). • Coagulation: prothrombin time (PT), international normalized ratio (INR) and activated partial […]. • Lipid Profile: LDL, HDL, and VLDL-C. • Urinalysis: pH, protein, glucose, blood, ketones, leukocytes, leukocyte esterase, bilirubin, specific gravity, urobilinogen and nitrate. […]"}, "rats": {"tested_on": "rats", "details": "28-day dose ranging study; cited from earlier work"}}}
{"smiles": "CC/C=C\\C[C@H](O)/C=C/C=C\\C/C=C\\C/C=C\\CCCC(=O)OCC", "note": "[DS102, 15(S)-hydroxy-(5Z,8Z,11Z,13E,17Z)-eicosapentaenoic acid ethyl ester]", "values": [{"measurement": "Sirius red-positive area (%)_Median", "setting": "UUO mice; 50 mg/kg PO QD Day 0-13, Day 14, median", "result": "4.19 ± 3.33", "unit": "%"}, {"measurement": "Sirius red-positive area (%)_Median", "setting": "UUO mice; 500 mg/kg PO QD Day 0-13, Day 14, median", "result": "3.08 ± 1.16", "unit": "%"}, {"measurement": "hepatic fat content as assessed by CAP", "setting": "NAFLD patients", "result": "reduced"}, {"measurement": "insulin sensitivity and glycemic control", "setting": "NAFLD patients; 1 g or 2 g per day, 16 weeks", "result": "improvement"}, {"measurement": "markers of metabolic overload", "setting": "NAFLD patients; 1 g or 2 g per day, 16 weeks", "result": "statistically significant reduction"}, {"measurement": "insulin resistance indices (HOMA-IR and adipo-IR levels)", "setting": "NAFLD patients; 1 g or 2 g per day, Week 16", "result": "improvement"}, {"measurement": "glycemic control (HbA1c levels)", "setting": "NAFLD patients; 1 g or 2 g per day, baseline to Week 16, dose-dependent", "result": "clinically significant improvements"}, {"measurement": "insulin, glucose, and free fatty acid levels", "setting": "NAFLD patients; 1 g or 2 g per day, baseline to Week 16 vs placebo", "result": "reduction"}, {"measurement": "alkaline phosphate (ALP)", "setting": "NAFLD patients; 2 g", "result": "reduced"}, {"measurement": "Triglycerides (median placebo-corrected % change from baseline)", "setting": "NAFLD patients; 2 g, Week 16, Full Analysis Set", "result": "−40.2", "unit": "%"}, {"measurement": "insulin resistance indices (HOMA-IR and adipo-IR levels)", "setting": "NAFLD patients; 2 g, Week 16, Per Protocol Set (PPS)", "result": "significant improvements"}, {"measurement": "Triglycerides (median placebo-corrected % change from baseline)", "setting": "NAFLD patients; 2 g, Week 16, Subgroup: High Triglycerides (>200 mg/dL)", "result": "−20.4", "unit": "%"}, {"measurement": "Triglycerides (median placebo-corrected % change from baseline)", "setting": "NAFLD patients; 2 g, Week 16, Subgroup: Triglycerides > Upper Limit Normal (>150 mg/dL)", "result": "−39.0", "unit": "%"}, {"measurement": "lipid profile (total cholesterol, VLDL-C, non-HDL-C, RLP cholesterol, triglyceride levels)", "setting": "NAFLD patients; Week 16, safety analysis set (SAS)", "result": "significantly improved"}, {"measurement": "oral maximum tolerated dose (MTD)", "setting": "rats", "result": 6, "unit": "g/kg/day"}]}
